# Assay results reported in US20230310428A1, “EGFR INHIBITOR AND PREPARATION METHOD AND USE THEREOF” (HONGYUN BIOTECH CO., LTD., priority 2020, published 2023).
# pIC50: −log10 of the molar value. Where two headings read alike, the source gives them in different places.
# Legend:
# Assay in all cases: Growth inhibitory activity of compounds on BaF3 cell lines stably transfected with kinase (MTS, 48 h)
# Format in all cases: cell-based
# [1] = biological target: T1, various mutants of kinase EGFR (BaF3 cell lines stably transfected with kinase) (Homo sapiens, UniProt P00533, T790M, form not given)
# T1 construct: other: BaF3 cells stably transfected with EGFR Δ19Del/T790M; MTS, 48 h; other: BaF3 cell line stably transfected with EGFR Δ19Del/T790M; MTS, 48
# T1 sequence (P00533 with tags, fused parts or gaps DEL746-750/T790M, form open): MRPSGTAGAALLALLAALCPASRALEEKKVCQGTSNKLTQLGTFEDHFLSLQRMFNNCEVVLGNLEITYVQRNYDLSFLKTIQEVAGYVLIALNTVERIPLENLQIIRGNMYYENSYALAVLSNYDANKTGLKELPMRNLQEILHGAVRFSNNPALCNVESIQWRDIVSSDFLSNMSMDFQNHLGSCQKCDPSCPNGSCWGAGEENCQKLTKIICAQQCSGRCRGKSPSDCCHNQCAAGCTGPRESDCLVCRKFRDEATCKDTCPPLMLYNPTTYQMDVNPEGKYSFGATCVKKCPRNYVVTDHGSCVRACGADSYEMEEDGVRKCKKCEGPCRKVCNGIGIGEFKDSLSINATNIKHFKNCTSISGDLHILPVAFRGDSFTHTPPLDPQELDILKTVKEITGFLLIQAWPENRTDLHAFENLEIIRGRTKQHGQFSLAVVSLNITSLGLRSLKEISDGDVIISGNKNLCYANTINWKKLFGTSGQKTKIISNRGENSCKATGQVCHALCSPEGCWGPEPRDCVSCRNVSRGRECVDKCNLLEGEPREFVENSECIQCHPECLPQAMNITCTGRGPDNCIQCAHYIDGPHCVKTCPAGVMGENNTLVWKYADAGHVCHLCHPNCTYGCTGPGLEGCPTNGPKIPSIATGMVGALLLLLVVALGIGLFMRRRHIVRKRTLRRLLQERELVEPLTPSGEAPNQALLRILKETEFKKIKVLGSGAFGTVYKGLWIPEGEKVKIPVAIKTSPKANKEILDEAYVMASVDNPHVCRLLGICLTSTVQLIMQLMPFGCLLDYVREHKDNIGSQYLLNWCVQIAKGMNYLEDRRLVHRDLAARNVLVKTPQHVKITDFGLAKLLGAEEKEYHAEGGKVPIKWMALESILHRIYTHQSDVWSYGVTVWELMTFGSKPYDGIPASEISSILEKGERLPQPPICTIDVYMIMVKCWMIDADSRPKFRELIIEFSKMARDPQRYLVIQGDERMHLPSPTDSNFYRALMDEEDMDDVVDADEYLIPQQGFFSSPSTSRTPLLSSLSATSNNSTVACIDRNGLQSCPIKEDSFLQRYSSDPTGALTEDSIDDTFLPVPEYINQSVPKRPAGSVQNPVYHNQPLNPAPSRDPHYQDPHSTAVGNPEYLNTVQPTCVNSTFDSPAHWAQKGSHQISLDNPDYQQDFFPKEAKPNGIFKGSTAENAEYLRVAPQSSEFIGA
# Procedure: (§1) The activity of compounds against various mutants of kinase EGFR was evaluated by their effect of inhibiting growth of BaF3 cell lines stably transfected with kinase. The specific test method was given as follows:
# (§2) 1) Culture medium: DMEM (Dulbecco’s modified eagle medium) or RPMI 1640 (containing 10% fetal bovine serum, 100 µg/mL ampicillin, 100 µg/mL streptomycin).
# (§3) 2) Reagent: MTS reaction solution (containing 2 mg/mL of MTS [3-(4,5-dimethylthiazol-2-yl)-5-(3-carboxymethoxyphenyl)-2-(4-sulfophenyl)-2H-tetrazoliu m, inner Salt]; 100 µg/mL of PES ([…])).
# (§4) 3) Compound test: cells were incubated into a 96-well culture plate, the volume of cytosol was 90 µL, and then 10 µL of the compound at each gradient concentration was added. That is, the highest concentration was 10 µM, which was diluted stepwise by ⅓, and 8 concentration points were set in total; 0.1% DMSO (dimethyl sulfoxide) was contained in the system. The cell plate with uniformly mixed compound was cultured in a cell culture incubator (37° C.; 5% CO2) for 48 h, then 20 µL of MTS reaction solution was added, uniformly mixed and incubated in the cell culture incubator (37° C.; 5% CO2) for 1-4 h. OD values at 490 nm were measured by a microplate reader (VARIOSKAN FLASH, Thermo). Two parallels were set in each group of experiments, with 0.1% (a final concentration) DMSO as a negative control, and a culture medium without cells and compounds as a blank control. The cell growth inhibition rate was calculated by the following formula: […]
# (§5) 4) IC50 calculation: The semi-inhibitory concentration of the compounds acting on cells was calculated using GradPad Prism 5 software according to the measured cell growth inhibition rate.
# [2] = biological target: T2, various mutants of kinase EGFR (BaF3 cell lines stably transfected with kinase) (Homo sapiens, UniProt P00533)
# T2 construct: other: BaF3 cells stably transfected with EGFR Δ19Del; MTS, 48 h; other: BaF3 cell line stably transfected with EGFR Δ19Del
# Procedure: as §1, §2, §3, §4, §5
# [3] = biological target: T3, various mutants of kinase EGFR (BaF3 cell lines stably transfected with kinase) (Homo sapiens, UniProt P00533, C797S/L858R/T790M)
# T3 construct: expressed in transfected cells; host or cells: BaF3
# T3 sequence (P00533 25-1210 T790M/C797S/L858R): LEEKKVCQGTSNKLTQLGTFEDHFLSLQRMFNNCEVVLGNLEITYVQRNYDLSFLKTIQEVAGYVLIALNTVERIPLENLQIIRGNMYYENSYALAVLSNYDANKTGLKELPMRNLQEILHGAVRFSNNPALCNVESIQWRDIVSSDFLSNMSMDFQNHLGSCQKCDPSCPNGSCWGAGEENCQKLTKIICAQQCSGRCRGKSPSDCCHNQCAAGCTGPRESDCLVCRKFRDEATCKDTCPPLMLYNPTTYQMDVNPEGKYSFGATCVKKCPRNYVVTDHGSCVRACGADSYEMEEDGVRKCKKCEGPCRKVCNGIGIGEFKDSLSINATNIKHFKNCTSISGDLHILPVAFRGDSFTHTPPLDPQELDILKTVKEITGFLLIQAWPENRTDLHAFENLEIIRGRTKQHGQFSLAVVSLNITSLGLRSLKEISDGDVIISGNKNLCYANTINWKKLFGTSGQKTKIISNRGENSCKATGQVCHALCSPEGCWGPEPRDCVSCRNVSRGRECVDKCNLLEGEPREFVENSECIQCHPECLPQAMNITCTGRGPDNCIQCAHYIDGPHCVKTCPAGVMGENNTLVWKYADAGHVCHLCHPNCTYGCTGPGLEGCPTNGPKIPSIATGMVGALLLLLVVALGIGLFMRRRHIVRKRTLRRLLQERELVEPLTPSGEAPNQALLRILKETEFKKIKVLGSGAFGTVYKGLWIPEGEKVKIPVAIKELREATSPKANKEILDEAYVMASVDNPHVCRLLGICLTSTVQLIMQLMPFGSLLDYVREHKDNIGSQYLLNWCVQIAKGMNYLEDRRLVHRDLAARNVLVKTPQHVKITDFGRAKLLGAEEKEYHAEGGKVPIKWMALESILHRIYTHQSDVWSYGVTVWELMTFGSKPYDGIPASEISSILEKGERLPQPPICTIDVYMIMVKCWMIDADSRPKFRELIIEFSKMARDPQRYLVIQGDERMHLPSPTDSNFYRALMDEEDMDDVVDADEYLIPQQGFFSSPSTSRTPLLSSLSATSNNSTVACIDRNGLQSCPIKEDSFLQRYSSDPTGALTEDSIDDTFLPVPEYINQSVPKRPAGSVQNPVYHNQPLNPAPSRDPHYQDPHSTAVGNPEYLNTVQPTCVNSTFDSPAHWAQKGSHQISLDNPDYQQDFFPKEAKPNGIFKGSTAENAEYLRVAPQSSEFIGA
# Procedure: as §1, §2, §3, §4, §5
# [4] = biological target: T4, various mutants of kinase EGFR (BaF3 cell lines stably transfected with kinase) (Homo sapiens, UniProt P00533, L858R/T790M)
# T4 construct: expressed in transfected cells; host or cells: BaF3
# T4 sequence (P00533 25-1210 T790M/L858R): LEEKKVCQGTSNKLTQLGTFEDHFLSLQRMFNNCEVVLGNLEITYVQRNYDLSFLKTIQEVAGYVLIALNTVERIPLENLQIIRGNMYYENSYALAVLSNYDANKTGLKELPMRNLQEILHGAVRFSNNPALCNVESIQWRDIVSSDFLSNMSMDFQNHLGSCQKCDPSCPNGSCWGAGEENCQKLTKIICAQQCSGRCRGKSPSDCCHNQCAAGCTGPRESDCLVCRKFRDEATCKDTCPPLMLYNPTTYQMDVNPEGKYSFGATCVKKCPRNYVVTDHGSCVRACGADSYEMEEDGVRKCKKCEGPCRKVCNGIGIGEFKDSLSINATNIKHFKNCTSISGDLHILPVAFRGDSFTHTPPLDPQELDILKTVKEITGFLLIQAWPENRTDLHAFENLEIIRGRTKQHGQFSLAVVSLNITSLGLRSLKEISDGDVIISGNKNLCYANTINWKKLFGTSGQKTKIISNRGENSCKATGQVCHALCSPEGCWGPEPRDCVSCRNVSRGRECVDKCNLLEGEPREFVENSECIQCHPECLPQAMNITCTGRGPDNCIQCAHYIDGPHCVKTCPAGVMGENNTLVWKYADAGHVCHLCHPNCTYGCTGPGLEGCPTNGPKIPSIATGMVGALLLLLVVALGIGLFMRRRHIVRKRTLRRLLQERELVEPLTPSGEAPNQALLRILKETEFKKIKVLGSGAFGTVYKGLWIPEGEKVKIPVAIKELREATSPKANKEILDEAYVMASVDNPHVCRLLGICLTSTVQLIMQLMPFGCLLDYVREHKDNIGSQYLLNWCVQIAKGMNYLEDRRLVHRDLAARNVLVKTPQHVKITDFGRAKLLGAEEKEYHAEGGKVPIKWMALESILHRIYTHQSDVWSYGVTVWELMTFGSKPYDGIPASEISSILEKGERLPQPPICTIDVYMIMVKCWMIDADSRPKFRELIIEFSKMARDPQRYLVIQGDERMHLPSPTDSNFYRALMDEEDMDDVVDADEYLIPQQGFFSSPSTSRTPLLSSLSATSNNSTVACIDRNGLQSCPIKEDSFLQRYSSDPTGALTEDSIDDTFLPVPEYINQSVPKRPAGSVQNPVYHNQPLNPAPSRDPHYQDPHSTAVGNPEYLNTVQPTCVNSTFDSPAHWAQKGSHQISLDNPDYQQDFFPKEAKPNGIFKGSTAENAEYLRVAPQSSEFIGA
# Procedure: as §1, §2, §3, §4, §5
# [5] = biological target: T5, various mutants of kinase EGFR (BaF3 cell lines stably transfected with kinase) (Homo sapiens, UniProt P00533, T790M/C797S, form not given)
# T5 construct: other: BaF3 cells stably transfected with EGFR Δ19Del/T790M/C797S; MTS, 48; other: BaF3 cell line stably transfected with EGFR Δ19Del/T790M/C7
# T5 sequence (P00533 with tags, fused parts or gaps DEL746-750/T790M/C797S, form open): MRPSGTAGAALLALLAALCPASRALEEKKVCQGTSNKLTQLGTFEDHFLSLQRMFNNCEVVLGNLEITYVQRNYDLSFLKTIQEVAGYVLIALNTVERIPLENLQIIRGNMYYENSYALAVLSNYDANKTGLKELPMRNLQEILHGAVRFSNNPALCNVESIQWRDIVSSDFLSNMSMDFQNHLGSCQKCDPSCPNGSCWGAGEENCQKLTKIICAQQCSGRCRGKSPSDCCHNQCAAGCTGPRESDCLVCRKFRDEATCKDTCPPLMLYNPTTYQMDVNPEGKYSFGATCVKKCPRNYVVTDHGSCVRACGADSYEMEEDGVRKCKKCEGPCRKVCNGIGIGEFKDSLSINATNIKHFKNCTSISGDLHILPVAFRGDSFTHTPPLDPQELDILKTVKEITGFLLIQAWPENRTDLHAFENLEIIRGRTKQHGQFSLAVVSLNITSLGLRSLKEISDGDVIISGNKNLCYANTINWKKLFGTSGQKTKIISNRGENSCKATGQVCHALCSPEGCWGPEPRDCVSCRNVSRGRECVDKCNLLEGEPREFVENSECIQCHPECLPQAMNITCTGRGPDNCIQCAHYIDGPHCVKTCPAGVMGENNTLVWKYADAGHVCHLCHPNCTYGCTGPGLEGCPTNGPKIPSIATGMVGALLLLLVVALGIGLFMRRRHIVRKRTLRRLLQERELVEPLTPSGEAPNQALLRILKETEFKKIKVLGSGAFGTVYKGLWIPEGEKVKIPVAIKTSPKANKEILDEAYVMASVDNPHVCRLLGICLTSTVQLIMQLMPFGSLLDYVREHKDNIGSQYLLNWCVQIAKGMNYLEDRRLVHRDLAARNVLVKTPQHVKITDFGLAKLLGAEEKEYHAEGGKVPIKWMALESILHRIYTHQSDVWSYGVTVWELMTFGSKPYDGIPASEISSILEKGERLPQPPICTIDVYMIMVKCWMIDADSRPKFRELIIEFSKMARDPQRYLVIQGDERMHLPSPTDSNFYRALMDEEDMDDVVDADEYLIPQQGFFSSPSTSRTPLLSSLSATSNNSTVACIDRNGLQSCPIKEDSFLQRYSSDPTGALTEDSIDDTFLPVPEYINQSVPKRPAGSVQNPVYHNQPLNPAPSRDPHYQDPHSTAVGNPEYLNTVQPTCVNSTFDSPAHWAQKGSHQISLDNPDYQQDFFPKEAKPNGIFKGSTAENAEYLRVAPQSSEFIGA
# Procedure: as §1, §2, §3, §4, §5
# [6] = biological target: T6, various mutants of kinase EGFR (BaF3 cell lines stably transfected with kinase) (Homo sapiens, UniProt P00533, L858R)
# T6 construct: expressed in transfected cells; host or cells: BaF3
# Procedure: as §1, §2, §3, §4, §5
# [7] = BaF3 cells stably transfected with EGFR Δ19Del/T790M, read-out: IC50, growth inhibition, Δ19Del/T790M
# [8] = BaF3 cells stably transfected with EGFR Δ19Del, read-out: IC50, growth inhibition, Δ19Del
# [9] = BaF3 cells stably transfected with EGFR L858R/T790M/C797S, read-out: IC50, growth inhibition, L858R/T790M/C797S
# [10] = BaF3 cells stably transfected with EGFR L858R/T790M, read-out: IC50, growth inhibition, L858R/T790M
# [11] = BaF3 cells stably transfected with EGFR Δ19Del/T790M/C797S, read-out: IC50, growth inhibition, Δ19Del/T790M/C797S
# [12] = BaF3 cells stably transfected with EGFR L858R, read-out: IC50, growth inhibition, L858R
# [13] = BaF3 cell line stably transfected with EGFR Δ19Del/T790M, read-out: Δ19Del/ T790M growth inhibitory activity IC50
# [14] = BaF3 cell line stably transfected with EGFR Δ19Del, read-out: Δ19Del growth inhibitory activity IC50
# [15] = BaF3 cell line stably transfected with EGFR L858R/T790M/C797S, read-out: L858R/T790M/ C797S growth inhibitory activity IC50
# [16] = BaF3 cell line stably transfected with EGFR L858R/T790M, read-out: L858R/ T790M growth inhibitory activity IC50
# [17] = BaF3 cell line stably transfected with EGFR Δ19Del/T790M/C797S, read-out: Δ19Del/T790M/ C797S growth inhibitory activity IC50
# [18] = BaF3 cell line stably transfected with EGFR L858R, read-out: L858R growth inhibitory activity IC50
"pIC50 [1, 7]","pIC50 [2, 8]","pIC50 [3, 9]","pIC50 [4, 10]","pIC50 [5, 11]","pIC50 [6, 12]","pIC50 [1, 13]","pIC50 [2, 14]","pIC50 [3, 15]","pIC50 [4, 16]","pIC50 [5, 17]","pIC50 [6, 18]",Structure (SMILES)
≥ 7.30,≥ 7.30,≥ 7.30,≥ 7.30,≥ 7.30,≥ 7.30,–,–,–,–,–,–,CCc1cc(Nc2ncc(Cl)c(Nc3ccc4nccnc4c3N(C)S(C)(=O)=O)n2)c(OC)cc1N1CCC(N2CCN(C)CC2)CC1 [Compound I-20]
6.30 to 7.30,6.30 to 7.30,6.30 to 7.30,≥ 7.30,≥ 7.30,6.30 to 7.30,–,–,–,–,–,–,CCc1cc(Nc2ncc(Cl)c(Nc3ccc4nccnc4c3N(CC)S(C)(=O)=O)n2)c(OC(F)(F)F)cc1N1CCC(N2CCN(C)CC2)CC1 [Compound I-111]
≥ 7.30,6.30 to 7.30,6.30 to 7.30,6.30 to 7.30,≥ 7.30,6.30 to 7.30,–,–,–,–,–,–,CCc1cc(Nc2ncc(Cl)c(Nc3ccc4nccnc4c3N(C)S(=O)(=O)C(C)C)n2)c(OC)nc1N1CCC(N2CCN(C)CC2)CC1 [Compound I-253]
5.60 to 6.30,5.60 to 6.30,5.60 to 6.30,5.60 to 6.30,6.30 to 7.30,5.60 to 6.30,–,–,–,–,–,–,COc1nc(N2CCC(N3CCN(C)CC3)CC2)ccc1Nc1ncc(F)c(Nc2ccc3nccnc3c2N(C)S(C)(=O)=O)n1 [Compound I-175]
6.30 to 7.30,6.30 to 7.30,6.30 to 7.30,6.30 to 7.30,≥ 7.30,6.30 to 7.30,–,–,–,–,–,–,COc1nc(N2CCC(N3CCN(C)CC3)CC2)ccc1Nc1ncc(C(F)(F)F)c(Nc2ccc3nccnc3c2N(C)S(C)(=O)=O)n1 [Compound I-197]
–,–,–,–,–,–,≥ 7.30,6.30 to 7.30,6.30 to 7.30,≥ 7.30,6.30 to 7.30,6.30 to 7.30,CCc1cc(Nc2ncc(C(C)C)c(Nc3ccc4nccnc4c3N(C)S(C)(=O)=O)n2)c(OC)nc1N1CCC(N2CCN(C)CC2)CC1 [Compound I-328]
–,–,–,–,–,–,6.30 to 7.30,6.30 to 7.30,6.30 to 7.30,6.30 to 7.30,≥ 7.30,6.30 to 7.30,COc1cc(N2CCC(N3CCN(C)CC3)CC2)ccc1Nc1ncc(C)c(Nc2ccc3nccnc3c2N(C)S(C)(=O)=O)n1 [Compound I-313]

# The remaining lines, values behind:
Structure (SMILES),"pIC50 [1, 7]","pIC50 [2, 8]","pIC50 [3, 9]","pIC50 [4, 10]","pIC50 [5, 11]","pIC50 [6, 12]","pIC50 [1, 13]","pIC50 [2, 14]","pIC50 [3, 15]","pIC50 [4, 16]","pIC50 [5, 17]","pIC50 [6, 18]"
CCc1cc(Nc2ncc(Br)c(Nc3ccc4nccnc4c3N(C)S(=O)(=O)C(F)(F)F)n2)c(OC)cc1N1CCC(N(C)C)C1 (stereo not drawn) [Compound I-128],6.30 to 7.30,5.60 to 6.30,6.30 to 7.30,6.30 to 7.30,≥ 7.30,5.60 to 6.30,–,–,–,–,–,–
COc1ccc(N2CCNCC2)cc1Nc1ncc(Br)c(Nc2ccc3nccnc3c2N(C)S(C)(=O)=O)n1 [Compound I-352],–,–,–,–,–,–,6.30 to 7.30,6.30 to 7.30,6.30 to 7.30,≥ 7.30,6.30 to 7.30,6.30 to 7.30
CN1CCN(C2CCN(c3ccc(Nc4ncc(F)c(Nc5ccc6nccnc6c5N(C)S(C)(=O)=O)n4)c(OC(F)(F)F)c3)CC2)CC1 [Compound I-178],5.60 to 6.30,6.30 to 7.30,5.60 to 6.30,5.60 to 6.30,6.30 to 7.30,6.30 to 7.30,–,–,–,–,–,–
COc1ccc(N2CCC(O)CC2)cc1Nc1ncc(C2CC2)c(Nc2ccc3nccnc3c2N(C)S(C)(=O)=O)n1 [Compound I-365],–,–,–,–,–,–,6.30 to 7.30,6.30 to 7.30,≥ 7.30,≥ 7.30,≥ 7.30,≥ 7.30
CN1CCN(Cc2cc(Nc3ncc(Br)c(Nc4ccc5nccnc5c4N(C)S(C)(=O)=O)n3)cc(C(F)(F)F)c2)CC1 [Compound I-82],6.30 to 7.30,6.30 to 7.30,6.30 to 7.30,≥ 7.30,6.30 to 7.30,6.30 to 7.30,–,–,–,–,–,–
CCc1cc(Nc2ncc(Br)c(Nc3ccc4nccnc4c3N(C)S(=O)(=O)C3CC3)n2)c(OC(F)(F)F)cc1N1CCC(N2CCN(C)CC2)CC1 [Compound I-106],≥ 7.30,6.30 to 7.30,6.30 to 7.30,6.30 to 7.30,≥ 7.30,6.30 to 7.30,–,–,–,–,–,–
COc1cc(N2CCC(N3CCN(C)CC3)CC2)c(C)cc1Nc1ncc(Br)c(Nc2ccc3nccnc3c2N(C2CC2)S(C)(=O)=O)n1 [Compound I-154],≥ 7.30,≥ 7.30,≥ 7.30,≥ 7.30,≥ 7.30,≥ 7.30,–,–,–,–,–,–
COc1cc(N2CCC(N3CCN(C)CC3)CC2)ccc1Nc1nc(Nc2ccc3nccnc3c2N(C)S(C)(=O)=O)c2occc2n1 [II-1-24],–,–,–,–,–,–,5.60 to 6.30,5.60 to 6.30,5.60 to 6.30,5.60 to 6.30,5.60 to 6.30,5.60 to 6.30
CCc1cc(Nc2ncc(Cl)c(Nc3ccc4nccnc4c3N(C3CC3)S(C)(=O)=O)n2)c(OC)cc1N1CCN(C)CC1 [Compound I-245],≥ 7.30,≥ 7.30,≥ 7.30,≥ 7.30,≥ 7.30,≥ 7.30,–,–,–,–,–,–
CCc1cc(Nc2ncc(Br)c(Nc3ccc4nccnc4c3NS(C)(=O)=O)n2)ccc1N1CCC(N2CCN(C)CC2)CC1 [Compound I-409],–,–,–,–,–,–,≥ 7.30,≥ 7.30,≥ 7.30,≥ 7.30,≥ 7.30,≥ 7.30
COc1cc(N2CCC(N3CCN(C)CC3)CC2)c(C)cc1Nc1ncc(Br)c(Nc2ccc3nccnc3c2N(C)S(=O)(=O)C(F)(F)F)n1 [Compound I-124],6.30 to 7.30,5.60 to 6.30,6.30 to 7.30,6.30 to 7.30,≥ 7.30,5.60 to 6.30,–,–,–,–,–,–
COc1cc(N2CCC(N(C)C)CC2)c(C)cc1Nc1ncc(F)c(Nc2ccc3nccnc3c2N(C)S(C)(=O)=O)n1 [Compound I-183],6.30 to 7.30,≥ 7.30,≥ 7.30,≥ 7.30,≥ 7.30,≥ 7.30,–,–,–,–,–,–
CN1CCN(C2CCN(c3cccc(Nc4ncc(Br)c(Nc5ccc6nccnc6c5N(C)S(C)(=O)=O)n4)c3)CC2)CC1 [Compound I-78],6.30 to 7.30,6.30 to 7.30,≥ 7.30,≥ 7.30,6.30 to 7.30,6.30 to 7.30,–,–,–,–,–,–
CCc1cc(Nc2ncc(CC)c(Nc3ccc4nccnc4c3N(C)S(C)(=O)=O)n2)c(OC)cc1N1CCC(N(C)C)C1 (stereo not drawn) [Compound I-324],–,–,–,–,–,–,≥ 7.30,≥ 7.30,≥ 7.30,≥ 7.30,≥ 7.30,≥ 7.30
COc1nc(N2CCC(N3CCN(C)CC3)CC2)ccc1Nc1nc(Nc2ccc3nccnc3c2N(C)S(C)(=O)=O)c2[nH]ccc2n1 [II-1-27],–,–,–,–,–,–,5.60 to 6.30,5.60 to 6.30,5.60 to 6.30,5.60 to 6.30,5.60 to 6.30,5.60 to 6.30
CCN(c1c(Nc2nc(Nc3cc(C)c(N4CCN(C)CC4)cc3OC)ncc2Cl)ccc2nccnc12)S(C)(=O)=O [Compound I-231],6.30 to 7.30,≥ 7.30,≥ 7.30,≥ 7.30,≥ 7.30,≥ 7.30,–,–,–,–,–,–
